# According to US20230348465A1, “IBOGAINE ANALOGS AS THERAPEUTICS FOR NEUROLOGICAL AND PSYCHIATRIC DISORDERS” (The Trustees of Columbia University in the City of New York, priority 2020, published 2023):
# Like-named read-outs stand apart in the source and are kept apart here.
# How the values were obtained:
# [1] = target: T1, hSERT (Homo sapiens, UniProt P31645); test: hSERT screening assay: inhibition of uptake of the fluorescent substrate APP+ in stably transfected hSERT-HEK cells; format: cell-based; conditions: for IC50: hSERT-HEK cells, APP+ 1.1 µM, mean ± SEM, n ≥ 4, read-out: SERT IC50; for Ki: Cheng-Prusoff from IC50, Km (APP+) = 1.6 µM, read-out: SERT Ki
# T1 construct: expressed in transfected cells; host or cells: HEK cells, stably transfected (hSERT-HEK), kept under G418
# Protocol: (§1) Stably transfected hSERT-HEK and rVMAT2-HEK cellular cultures were maintained in Dulbecco’s Minimal Essential Medium (DMEM) with GlutaMAX (Gibco) with the following additions: 10% (v/v) Fetal Bovine Serum (FBS, Atlanta Biologicals), 100 U/mL Penicillin, and 10 µg/mL Streptomycin (Gibco). With regards to the former cell lineage, an additional ingredient, 500 µg/mLGeneticin (G418) (Sigma) was included to preserve the respective transgene.
# (§2) For both hSERT and rVMAT2 screening experiments, respective singly transfected cells were seeded at a density of 0.09 × 10^6 cells/well in poly-D-Lysine (Sigma) coated white solid-bottom 96-well plates. Growth was permitted for approximately 44 hours in said aqueous media and at an incubation environment of 37° C. and 5% Carbon Dioxide. At the beginning of the experiment, the cellular growth solution was aspirated, and individual cells were rinsed with 150 µL of 1× Dulbecco’s Phosphate Buffered Saline (PBS; HyClone). 63 µL of Experimental Media (consisting of the following contents: DMEM without phenol red but with 4.5 g/L of D-Glucose (Gibco), 1 % (v/v) FBS (Atlanta Biologicals), 100 U/mL Penicillin, and 10 µg/mLStreptomycin (Gibco)) with 2 × tiered concentrations of inhibitor (or DMSO, the vehicle of these experiments) were added to the respective wells. […] After a required incubation period of 30 minutes for proper fluorescent probe uptake, the contents of each well were aspirated and consequently, rinsed twice with 120 µL of PBS. A final solution of 120 µL of PBS is finally added to all corresponding wells for cell maintenance before undergoing fluorescence uptake reading by a BioTek H1MF plate reader.
# (§3) Numerical analysis of the collected experimental data preceded as accordingly. Respective inhibitor values were first subtracted from vehicular values to quantify the respective fluorescence uptake. This metric was then analyzed using the dose-response-inhibitor nonlinear curve fitting model ([inhibitor] vs response (three parameters)) as supplied by GraphPad Prism 6 software. For each inhibitor, the model supplied a respective IC50 ± SEM value (Table 1).
# [2] = target: T2, rVMAT2 (Rattus norvegicus, UniProt Q01827); test: rVMAT2 screening assay: inhibition of uptake of the fluorescent substrate FFN206 in stably transfected rVMAT2-HEK cells; format: cell-based; conditions: for Ki: read-out: VMAT2 Ki
# T2 construct: expressed in transfected cells; host or cells: HEK cells, stably transfected (rVMAT2-HEK)
# Protocol: as §1, §2, §3
# [3] = Metabolic stability and noribogaine formation in rat liver microsomes (RLM), LC-MS/MS; conditions: for percent remaining of parent compound: 10 µM, + NADPH; for CLh,int: 45 mg microsomal protein per gm liver; for % Remaining at 60 min (- NADPH): without NADPH; for %Remaining at 60 min (Buffer): buffer control, RLM column; for half-life at 10 µM: male, rat, microsomes, pH 7.4
# Protocol: (§4) Metabolism Studies. Metabolic stability of test compounds was evaluated in liver microsomes from rat (RLM) and human (HLM). This was accomplished by incubating test compounds with microsomes and monitoring disappearance of parent compound as well as metabolite formation over time using LC-MS/MS in Multiple Reaction Monitoring mode (MRM).
# (§5) Stock solutions of test compounds were prepared in DMSO at a concentration of 10 mM.
# (§6) From the above mix, 70 µL was added to individual wells of 96 well reaction plates and preincubated at 37° C. for 5 min. […] Reactions without NADPH and buffer controls (minus NADPH) at 0 min and 60 min were also incubated to rule out non-NADPH metabolism or chemical instability in the incubation buffer. All reactions were terminated using 100 µL of ice-cold acetonitrile containing internal standard (glipizide) at 0, 5, 15, 30 and 60 min.
# (§7) Samples were monitored for parent compounds disappearance and formation of metabolite in MRM mode using LC-MS/MS instrument (API-4000 with Waters UPLC).
# (§8) The percent remaining of test compounds and positive control in each sample was determined by considering peak area ratio in the 0 minute sample as 100%. The Half-life of compounds in microsomes is calculated by formula: […]
# (§9) In vitro intrinsic clearance (CL´int) (units in mL/min/kg) was calculated using the formula: […]
# (§10) * Indicates liver weight (gm) which varies species wise. For human, monkey, dog, rat and mouse the liver weight are 20 gm, 32 gm, 32 gm, 40 gm and 90 gm respectively.
# [4] = Metabolic stability and noribogaine formation in human liver microsomes (HLM), LC-MS/MS; conditions: for percent remaining of parent compound / CLh,int / % Remaining at 60 min (+ NADPH) / % Remaining at 60 min (- NADPH): HLM; for percent remaining of parent compound: 10 µM, + NADPH; for CLh,int: 45 mg microsomal protein per gm liver; for % Remaining at 60 min (+ NADPH): summary line; for % Remaining at 60 min (- NADPH): without NADPH; for %Remaining at 60 min (Buffer): buffer control, HLM column; for half-life at 10 µM: human, microsomes, pH 7.4
# Protocol: as §4, §5, §6, §7, §8, §9, §10
# [5] = rVMAT2-HEK cells, FFN206 0.75 µM, mean ± SEM, n ≥ 4, read-out: VMAT2 IC50
# [6] = ratio of potency to noribogaine
# T2 sequence (Q01827 whole entry): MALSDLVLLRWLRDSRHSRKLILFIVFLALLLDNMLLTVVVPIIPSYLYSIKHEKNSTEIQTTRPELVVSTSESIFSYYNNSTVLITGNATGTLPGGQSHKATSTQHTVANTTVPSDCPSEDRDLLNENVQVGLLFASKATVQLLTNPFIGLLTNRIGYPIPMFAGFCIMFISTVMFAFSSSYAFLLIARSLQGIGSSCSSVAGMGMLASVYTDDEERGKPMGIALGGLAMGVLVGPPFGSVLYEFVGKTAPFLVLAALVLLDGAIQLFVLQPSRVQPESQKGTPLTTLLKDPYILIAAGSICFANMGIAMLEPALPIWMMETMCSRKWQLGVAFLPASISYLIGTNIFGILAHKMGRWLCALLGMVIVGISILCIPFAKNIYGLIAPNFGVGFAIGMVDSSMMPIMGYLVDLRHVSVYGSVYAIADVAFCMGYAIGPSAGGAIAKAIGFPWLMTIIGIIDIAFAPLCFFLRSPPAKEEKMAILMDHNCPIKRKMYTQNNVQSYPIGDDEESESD
# T1 sequence (P31645 whole entry): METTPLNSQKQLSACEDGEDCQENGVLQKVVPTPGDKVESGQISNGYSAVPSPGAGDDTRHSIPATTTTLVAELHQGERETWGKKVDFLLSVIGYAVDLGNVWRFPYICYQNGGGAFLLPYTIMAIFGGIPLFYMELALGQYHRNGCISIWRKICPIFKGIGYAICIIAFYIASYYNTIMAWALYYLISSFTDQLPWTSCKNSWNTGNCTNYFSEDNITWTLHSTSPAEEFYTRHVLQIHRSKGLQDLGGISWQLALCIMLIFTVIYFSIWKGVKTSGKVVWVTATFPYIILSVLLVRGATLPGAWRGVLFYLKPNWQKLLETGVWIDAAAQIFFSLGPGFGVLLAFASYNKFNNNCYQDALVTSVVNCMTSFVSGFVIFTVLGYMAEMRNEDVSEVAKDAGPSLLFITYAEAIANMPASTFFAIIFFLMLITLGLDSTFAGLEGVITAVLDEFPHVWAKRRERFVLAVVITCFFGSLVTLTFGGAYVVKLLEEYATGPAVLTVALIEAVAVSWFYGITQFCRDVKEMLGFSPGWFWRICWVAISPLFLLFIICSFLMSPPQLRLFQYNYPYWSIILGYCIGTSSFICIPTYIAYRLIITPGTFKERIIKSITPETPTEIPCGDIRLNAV
structure (smiles),measurement,setting,value
"CC[C@H]1C[C@H]2C[C@H]3c4[nH]c5ccc(O)cc5c4CCN(C2)[C@@H]13 [Noribogaine, reference compound]","SERT inhibition, result in words",[1],potent SERT inhibitor
same,Ki,"[2]; Cheng-Prusoff from IC50, Km (FFN206) = […]",350 ± 40 nM
same,IC50,[2]; [5],570 ± 80 nM
"CCC1CC2CC3c4[nH]c5ccc(OC)c(Cl)c5c4CCN(C2)C13 (centres unmarked) [Compound 19, 9-Chloro-ibogaine]",IC50,[1],1200 ± 120 nM
same,IC50,[2]; [5],18000 ± 5900 nM
CCC1CC2CC3c4[nH]c5ccc(OC)cc5c4CCN(C2)C13 (centres unmarked) [Ibogaine],IC50,[2],~4000 nM
same,percent remaining of parent compound,"[3]; RLM, 0 min",100%
same,"CLh,int",[3]; RLM,306 mL/min/kg
same,percent remaining of parent compound,"[3]; RLM, 5 min",86%
same,percent remaining of parent compound,"[3]; RLM, 15 min",56%
same,percent remaining of parent compound,"[3]; RLM, 30 min",23%
same,percent remaining of parent compound,"[3]; RLM, 60 min",1%
same,% Remaining at 60 min (- NADPH),[3]; RLM,104%
same,%Remaining at 60 min (Buffer),[3],103%
same,half-life at 10 µM,[3],8 min
same,percent remaining of parent compound,[4]; 0 min,100%
same,"CLh,int",[4],7 mL/min/kg
same,percent remaining of parent compound,[4]; 5 min,104%
same,percent remaining of parent compound,[4]; 15 min,98%
same,percent remaining of parent compound,[4]; 30 min,94%
same,percent remaining of parent compound,[4]; 60 min,81%
same,% Remaining at 60 min (+ NADPH),[4],81%
same,% Remaining at 60 min (- NADPH),[4],98%
same,%Remaining at 60 min (Buffer),[4],103%
same,half-life at 10 µM,[4],> 60 min
"CCC1CC2CC3c4c(c5cc(O)ccc5n4CC)CCN(C2)C13 (centres unmarked) [Compound 13, N-ethyl-noribogaine]",IC50,[1],1900 ± 200 nM
same,IC50,[2]; [5],70 ± 10 nM
"CCC1CC2CC3c4[nH]c5ccc(C(N)=O)cc5c4CCN(C2)C13 (centres unmarked) [Compound 2, Ibogamine-10-carboxamide]",IC50,[1],2500 ± 290 nM
same,IC50,[2]; [5],3000 ± 570 nM
CCOc1ccc2[nH]c3c(c2c1)CCN1CC2CC(CC)C1C3C2 (centres unmarked) [10-Ethoxy-ibogamine],"SERT inhibition, result in words",[1],only a weak inhibitor of SERT
same,IC50,[1],9000 ± 1100 nM
same,"VMAT2 inhibition, result in words",[2],potent VMAT2 inhibitor
same,"VMAT2 inhibition, result in words",[2]; listed as 10-Ethoxy-ibogaine,nearly an order of magnitude more potent
same,IC50,[2]; [5],80 ± 20 nM
same,Ki,[2],50 ± 10 nM
same,percent remaining of parent compound,"[3]; RLM, 0 min",100%
same,"CLh,int",[3]; RLM,445 mL/min/kg
same,percent remaining of parent compound,"[3]; RLM, 5 min",77%
same,percent remaining of parent compound,"[3]; RLM, 15 min",42%
same,percent remaining of parent compound,"[3]; RLM, 30 min",3%
same,percent remaining of parent compound,"[3]; RLM, 60 min",0%
same,% Remaining at 60 min (+ NADPH),"[3]; RLM, summary line",0%
same,% Remaining at 60 min (- NADPH),[3]; RLM,88%
same,%Remaining at 60 min (Buffer),[3],88%
same,half-life at 10 µM,[3],6 min
same,percent remaining of parent compound,[4]; 0 min,100%
same,"CLh,int",[4],13 mL/min/kg
same,percent remaining of parent compound,[4]; 5 min,103%
same,percent remaining of parent compound,[4]; 15 min,98%
same,percent remaining of parent compound,[4]; 30 min,85%
same,percent remaining of parent compound,[4]; 60 min,66%
same,% Remaining at 60 min (+ NADPH),[4],66%
same,% Remaining at 60 min (- NADPH),[4],106%
same,%Remaining at 60 min (Buffer),[4],88%
same,half-life at 10 µM,[4],> 60 min
"CCC1CC2CC3c4[nH]c5ccc(OC)c(Br)c5c4CCN(C2)C13 (centres unmarked) [Compound 17, 9-Bromo-ibogaine]",Ki,[1],400 ± 90 nM
same,IC50,[1],670 ± 160 nM
same,times less potent than noribogaine at SERT,[1]; [6],approximately 2.4
same,IC50,[2]; [5],4900 ± 870 nM
same,times weaker than noribogaine at VMAT2,[2]; [6],~8.6
same,Ki,[2],3000 ± 530 nM
"CCc1ccc2c(c1)c1c(n2C)C2CC3CC(CC)C2N(CC1)C3 (centres unmarked) [Compound 11, N-methyl-10-ethyl-ibogamine]",IC50,[1],910 ± 120 nM
same,IC50,[2]; [5],750 ± 70 nM
"CCC1CC2CC3c4c(c5ccccc5n4C)CCN(C2)C13 (centres unmarked) [Compound 6, N-methyl-ibogamine]",IC50,[1],80 ± 9 nM
same,IC50,[2]; [5],1500 ± 160 nM
"CCC1CC2CC3c4[nH]c5ccccc5c4CCN(C2)C13 (centres unmarked) [Compound 5, Ibogamine]",Ki,[1],200 ± 20 nM
same,IC50,[1],330 ± 40 nM
same,IC50,[2]; [5],3000 ± 550 nM
same,times weaker than noribogaine at VMAT2,[2]; [6],approximately 5.3
same,Ki,[2],1800 ± 340 nM
"CCC1CC2CC3c4c(c5cc(OC)ccc5n4C)CCN(C2)C13 (centres unmarked) [Compound 7, N-methyl-ibogaine]",IC50,[1],1500 ± 130 nM
same,IC50,[2]; [5],740 ± 110 nM
"CCOc1ccc2c(c1)c1c(n2C)C2CC3CC(CC)C2N(CC1)C3 (centres unmarked) [Compound 14, N-methyl-10-ethoxy-ibogamine]",IC50,[1],2800 ± 380 nM
"CCC1CC2CC3c4[nH]c5ccc(C#N)cc5c4CCN(C2)C13 (centres unmarked) [Compound 3, Ibogamine-10-carbonitrile]",IC50,[1],26 ± 3.8 nM
same,IC50,[2]; [5],3300 ± 430 nM
"CCC1CC2CC3c4c(c5cc(C#N)ccc5n4C)CCN(C2)C13 (centres unmarked) [Compound 10, N-methyl-ibogamine-10-carbonitrile]",IC50,[1],5.1 ± 0.83 nM
same,IC50,[2]; [5],440 ± 50 nM
"CCC1CC2CC3c4[nH]c5cc(Br)c(OC)cc5c4CCN(C2)C13 (centres unmarked) [Compound 18, 11-Bromo-ibogaine]",IC50,[1],200 ± 30 nM
same,IC50,[2]; [5],1000 ± 150 nM
"CCC1CC2CC3c4c(c5cc(O)ccc5n4C)CCN(C2)C13 (centres unmarked) [Compound 8, N-methyl-noribogaine]",Ki,[1],35 ± 6.7 nM
same,IC50,[1],59 ± 11 nM
same,times more potent than noribogaine at SERT,[1]; [6],approximately 4.7
same,IC50,[2]; [5],170 ± 30 nM
same,times more potent than noribogaine at VMAT2,[2]; [6],approximately 3.4
same,Ki,[2],100 ± 20 nM
"CCCOc1ccc2[nH]c3c(c2c1)CCN1CC2CC(CC)C1C3C2 (centres unmarked) [Compound 4, 10-Propoxy-ibogamine]",IC50,[1],3000 ± 500 nM
